This is an account of results in US20020155540A1, “Method to reduce transcriptional interference between tandem genes” (priority 2001, published 2002).

Structures are written as SMILES.

The assay has as its system ecdysone receptor (EcR) based, chemically inducible gene expression system. Briefly: Ecdysone receptor-based gene induction: upstream LUC activation and downstream RLUC expression in protoplasts. The format is cell-based, tobacco.

Procedure: Protoplasts were prepared from actively growing tobacco BY-2 suspension cells (Japan Tobacco, Japan) and cultured essentially as described in Kikkawa et al. (9). One ml of protoplasts (5×10^5 to 1×10^6 cells) was mixed with plasmid DNA and electroporated at 0.56 K Volts for 80 μ seconds using an electroporation system with petripulser electrode (BTX). Equimolar plasmid DNA was added to transfections and the amount of DNA added varied from 23 to 30 μg depending on the plasmid size. To standardize the luciferase enzyme assays, 2 μg of the RLUC plasmid DNA were also added to each transfection as an internal control. Following the electroporation, protoplasts were diluted with 1 ml of 2×protoplast culture medium, aliquoted as two 1 ml cultures and incubated at 27° C. for 16-17 h. Each plasmid construct was tested in 5 to 7 independent transfection experiments.
Protoplast cultures were lysed by adding 250 μl of 5× passive lysis buffer (Promega) and shaking at room temperature for 10 minutes. […] The assay was performed with a luminometer plate reader (Dynex). The luciferase enzyme activities were measured and expressed as ratios of luciferase to Renilla luciferase activities in relative light units.
Induction of the Luc gene expression cassette was controlled by the addition of EcR ligand methoxyfenozide.
It contains a constitutively expressed chimeric GVE receptor gene (CsVMV promoter—sequences coding for GAL4 DNA binding domain, VP16 activation domain, and EcR ligand binding domain—NOS terminator) and an inducible promoter (five copies of GAL4 response element+minimal 35S promoter) to drive LUC gene expression (FIG. 1D). When the ligand methoxyfenozide (4) is applied to protoplasts, it binds to and activates the chimeric receptor. The activated receptor then induces LUC gene expression. This system was used to activate the upstream LUC gene, and the influence of LUC activation on the downstream constitutive RLUC gene expression was then measured.

Regarding `COc1cccc(C(=O)NN(C(=O)c2cc(C)cc(C)c2)C(C)(C)C)c1C` [methoxyfenozide], where the note is “10 μM methoxyfenozide”, the “Luc Induced” value is recorded as 25,428 RLU and the “RLuc Induced” value amounted to 8832 RLU. In addition, the “reduction of downstream, constitutively expressed RLuc expression” value (after activation of upstream Luc gene with ligand) was determined as 71%.
